# In patent US12491186B2, “EGFR inhibitors for treating keratodermas” (INSERM (Institut National de la Santé et de la Recherche …, priority 2018, dated 2025):
# Like-named read-outs stand apart in the source and are kept apart here.
# Tested on: OS patients
structure (smiles),measurement,setting,value
C#Cc1cccc(Nc2ncnc3cc(OCCOC)c(OCCOC)cc23)c1.Cl [Erlotinib],overall clinical outcome,3 OS patients,dramatic improvement
same,pain outcome after three months,"OS patients on Erlotinib, after three months",total disappearance and spontaneous pain drug removal
same,only persistent side effect,"human, in vivo",moderate acne reaction
same,side effect leading to dose reduction,"human, in vivo",abdominal pain and nausea
same,keratoderma regression completed at day,"patient 2 (mild PPK), Erlotinib 50 mg",30 days
same,reduction of pain,"patient 3, Erlotinib started at 50 mg",later
same,reduction of pain,"patients 1 and 2, Erlotinib started at 100 mg (patient 2 reduced to 50 mg)",rapid reduction of pain was observed within days
same,keratoderma regression completed at day,patients 1 and 3 (severe PPK),90 days
